This is an account of results in patent US12122800B2, “Inhibitors of MEK kinase” (Kinnate Biopharma Inc., priority 2022, dated 2024).

pIC50: −log10 of the molar value.

This assay deals with A375 pERK. As to the kind of experiment: Cellular assay monitoring phosphorylation of ERK (HTRF phospho-ERK Thr202/Tyr204) in A-375 cells. It counts as cell-based. Particulars: Homo sapiens, melanoma derived cell line A-375 (BRAF V600 activating mutation), 1 hour incubation with compound. Here is the method: To determine the effect of the MEK inhibitor compounds disclosed herein on cellular MAPK signaling downstream of MEK, an assay monitoring phosphorylation of ERK was used. Melanoma derived cell line A-375, which harbors a BRAF V600 activating mutation was cultured and maintained as specified by the supplier (ATCC: Cat #CRL-1619; American Type Culture Collection; Manassas, VA 20110). Cells were seeded at 8000 cells/well in 24 μL growth media in a 384-well plate and allowed to adhere at 37° C. with 5% CO2 overnight. The following day, compounds were serially diluted into 10-point, 3-fold dilution curves in 384 well plates. Compound was transferred to cell plates using Echo550 such that the final concentration range was 0.508 nM to […] in […] with 0.1% DMSO being used as negative control. Cells were incubated with compounds for 1 hour at 37° C. with […]. Cells were lysed by addition of 8 μL 4× lysis buffer provided with HTRF kit (Advanced phospho-ERK (Thr202/Tyr204) cellular kit; Cisbio; Cat #64AERPEH) plus 1× protease/phosphatase inhibitor cocktail. 20 μL lysate was transferred to HTRF plate followed by 2.5 μL each of anti-ERK1/2-Europium/Terbium Cryptate and anti-phospho-ERK1/2 antibody solutions per manufacturer's instructions and incubated. Specific signal was measured at […] on a Perkin Elmer Envision 2105 and the ratios used to calculate IC50 values within the Dotmatics Knowledge Solutions Studies curve fitting environment (Dotmatics, Bishops Stortford, UK, CM23) and are presented in Table 8.
Background: Time-resolved FRET reads energy transfer from a long-lived donor to a nearby acceptor.
One may read the pIC50 as the IC50 on a negative log10 scale, so that one unit is a factor of ten. As to `CP(C)(=O)c1ccncc1Nc1ccc(C2CC2)cc1F` [Example 23, N-(4-Cyclopropyl-2-fluorophenyl)-4-(dimethylphosphoryl)pyridin-3-amine], the pIC50 is 7.00 to 8.00. As to `CP(C)(=O)c1ccncc1Nc1ccc(I)cc1F` [Example 1, 4-(Dimethylphosphoryl)-N-(2-fluoro-4-iodophenyl)pyridin-3-amine], the pIC50 is under 8.00.

Consider `C#Cc1ccc(Nc2cnccc2[P@@](C)(=O)CC)c(F)c1` (single isomer, unassigned) [Example 20], for which the pIC50 was 6.00 to 7.00.

As to `CCP(C)(=O)c1ccncc1Nc1ccc(I)cc1F` (centres unmarked) [Example 7, 4-[Ethyl(methyl)phosphoryl]-N-(2-fluoro-4-iodophenyl)pyridin-3-amine], the pIC50 is 7.00 to 8.00. Turning to `O=P1(c2ccncc2Nc2ccc(I)cc2F)CCCC1` [Example 5, 1-(3-((2-Fluoro-4-iodophenyl)amino)pyridin-4-yl)phospholane 1-oxide], the pIC50 is 7.00 to 8.00. Consider `O=P1(c2ccncc2Nc2ccc(Br)cc2F)CCCC1` [Example 12, 1-(3-((4-Bromo-2-fluorophenyl)amino)pyridin-4-yl)phospholane 1-oxide], for which the negative-log IC50 (pIC50) was 6.00 to 7.00.

As to `CP(C)(=O)c1ccc(F)cc1Nc1ccc(I)cc1F` [Example 2, 2-(Dimethylphosphoryl)-5-fluoro-N-(2-fluoro-4-iodophenyl)aniline], the pIC50 is at least 6.00. On to `CC[P@](C)(=O)c1ccncc1Nc1ccc(I)cc1F` (single isomer, unassigned) [Example 9], for which the pIC50 was 7.00 to 8.00. Then `CP(C)(=O)c1ccncc1Nc1ccc(Br)cc1F` [Example 10, N-(4-Bromo-2-fluorophenyl)-4-(dimethylphosphoryl)pyridin-3-amine], with 6.00 to 7.00.

With `Cc1cncc(Nc2ccc(I)cc2F)c1P(C)(C)=O` [Example 30, 4-(Dimethylphosphoryl)-N-(2-fluoro-4-iodophenyl)-5-methylpyridin-3-amine], the pIC50 was under 8.00. Regarding `CP(C)(=O)c1c(F)cncc1Nc1ccc(Br)cc1Cl` [Example 26, N-(4-bromo-2-chlorophenyl)-4-(dimethylphosphoryl)-5-fluoropyridin-3-amine], the pIC50 was under 8.00.

As for `CP(C)(=O)c1c(Cl)cncc1Nc1ccc(C2CC2)cc1F` [Example 32, (3-Chloro-5-((4-cyclopropyl-2-fluorophenyl)amino)pyridin-4-yl)dimethylphosphine oxide], the pIC50 was 7.00 to 8.00. For the compound `CP(C)(=O)c1ccnc(F)c1Nc1ccc(I)cc1F` [Example 25, (2-Fluoro-3-((2-fluoro-4-iodophenyl)amino)pyridin-4-yl)dimethylphosphine oxide], the pIC50 is 7.00 to 8.00.

For the compound `CC[P@@](C)(=O)c1ccncc1Nc1ccc(I)cc1F` (single isomer, unassigned) [Example 8], the pIC50 is 7.00 to 8.00. As to `CP(C)(=O)c1c(Cl)cncc1Nc1ccc(Br)cc1Cl` [Example 28, N-(4-Bromo-2-chlorophenyl)-5-chloro-4-(dimethylphosphoryl)pyridin-3-amine], the pIC50 was 6.00 to 7.00. Turning to `C#Cc1ccc(Nc2cnccc2P2(=O)CCCC2)c(F)c1` [Example 15, 1-(3-((4-Ethynyl-2-fluorophenyl)amino)pyridin-4-yl)phospholane 1-oxide], the pIC50 was 6.00 to 7.00. In the case of `CP(C)(=O)c1ccncc1Nc1ccc(I)c(F)c1F` [Example 3, N-(2,3-Difluoro-4-iodophenyl)-4-(dimethylphosphoryl)pyridin-3-amine], the pIC50 was 7.00 to 8.00. Then `CC[P@@](C)(=O)c1ccncc1Nc1ccc(Br)cc1F` (single isomer, unassigned) [Example 16], with 6.00 to 7.00; and `C#Cc1ccc(Nc2cnccc2[P@](C)(=O)CC)c(F)c1` (single isomer, unassigned) [Example 19], with 6.00 to 7.00.

In the case of `CCP(=O)(CC)c1ccncc1Nc1ccc(Br)cc1F` [Example 11, N-(4-bromo-2-fluorophenyl)-4-(diethylphosphoryl)pyridin-3-amine], the pIC50 is 6.00 to 7.00.

As for `CP(C)(=O)c1ccncc1Nc1ccc(Br)cc1Cl` [Example 27, N-(4-bromo-2-chlorophenyl)-4-(dimethylphosphoryl) pyridin-3-amine], the negative logarithm of the IC50 (pIC50) is 6.00 to 7.00. To `CP(C)(=O)c1c(Cl)cncc1Nc1ccc(Br)cc1F` [Example 29, (3-((4-Bromo-2-fluorophenyl)amino)-5-chloropyridin-4-yl)dimethylphosphine oxide] belongs 7.00 to 8.00; to `CP(C)(=O)c1ccc(F)c(F)c1Nc1ccc(I)cc1F` [Example 4, 6-(Dimethylphosphoryl)-2,3-difluoro-N-(2-fluoro-4-iodophenyl)aniline], at least 6.00; to `CC[P@](C)(=O)c1ccncc1Nc1ccc(Br)cc1F` (single isomer, unassigned) [Example 17], 6.00 to 7.00. For the compound `CCP(=O)(CC)c1ccncc1Nc1ccc(I)cc1F` [Example 6, 4-(Diethylphosphoryl)-N-(2-fluoro-4-iodophenyl)pyridin-3-amine], the pIC50 was 7.00 to 8.00. `C#Cc1ccc(Nc2cncc(F)c2P(C)(C)=O)c(F)c1` [Example 31, 4-(Dimethylphosphoryl)-N-(4-ethynyl-2-fluorophenyl)-5-fluoropyridin-3-amine]: the pIC50 was 7.00 to 8.00. For `CP(C)(=O)c1c(Cl)cncc1Nc1ccc(I)cc1F` [Example 13, 5-Chloro-4-(dimethylphosphoryl)-N-(2-fluoro-4-iodophenyl)pyridin-3-amine], the pIC50 was under 8.00. As to `C#Cc1ccc(Nc2cnccc2P(=O)(CC)CC)c(F)c1` [Example 18, 4-(Diethylphosphoryl)-N-(4-ethynyl-2-fluorophenyl)pyridin-3-amine], the pIC50 is 6.00 to 7.00.

For the compound `C#Cc1ccc(Nc2cnccc2P(C)(C)=O)c(F)c1` [Example 14, (3-((4-Ethynyl-2-fluorophenyl)amino)pyridin-4-yl)dimethylphosphine oxide], the pIC50 was 7.00 to 8.00. On to `CP(C)(=O)c1cc(F)ncc1Nc1ccc(I)cc1F` [Example 21, (2-Fluoro-5-((2-fluoro-4-iodophenyl)amino)pyridin-4-yl)dimethylphosphine oxide], for which the pIC50 is 6.00 to 7.00.

With `CP(C)(=O)c1ccncc1Nc1ccc(I)cc1` [Example 22, 4-(Dimethylphosphoryl)-N-(4-iodophenyl)pyridin-3-amine], the pIC50 is 7.00 to 8.00.

`CP(C)(=O)c1c(F)cncc1Nc1ccc(I)cc1F` [Example 24, 4-(Dimethylphosphoryl)-5-fluoro-N-(2-fluoro-4-iodophenyl)pyridin-3-amine]: the pIC50 was under 8.00.
